Five molecules from patent publication US9302999B2, “Substituted triazoles as herbicides” (E. I. DU PONT DE NEMOURS AND COMPANY, priority 2012, dated 2016) can be followed below.

Where two headings read alike, the source gives them in different places.

Common to all, as to type: in vivo
The test system of test [1] is deadnettle (henbit deadnettle, Lamium amplexicaule). The experiment in a line: Test D pre-/postemergence: deadnettle. An excerpt: (§1) Seeds of plant species selected from bluegrass (annual bluegrass, Poa annua), blackgrass (Alopecurus myosuroides), canarygrass (Phalaris minor), chickweed (common chickweed, Stellaria media), galium (catchweed bedstraw, Galium aparine), bromegrass, downy (downy bromegrass, Bromus tectorum), field poppy (Papaver rhoeas), field violet (Viola arvensis), foxtail, green (green foxtail, Setaria viridis), deadnettle (henbit deadnettle, Lamium amplexicaule), ryegrass, Italian (Italian ryegrass, Lolium multiflorum), kochia (Kochia scoparia), lambsquarters (Chenopodium album), oilseed rape (Brassica napus), pigweed (Amaranthus retroflexus), Russian thistle (Salsola iberica), chamomile (scentless chamomile, Matricaria inodora), speedwell (bird's-eye speedwell, Veronica persica), barley, spring (spring barley, Hordeum vulgare), wheat, spring (spring wheat, Triticum aestivum), buckwheat, wild (wild buckwheat, Polygonum convolvulus), mustard, wild (wild mustard, Sinapis arvensis), oat, wild (wild oat, Avena fatua), radish, wild (wild radish, Raphanus raphanistrum), windgrass (Apera spica-venti), barley, winter (winter barley, Hordeum vulgare), and wheat, winter (winter wheat, Triticum aestivum) were planted into a silt loam soil and treated preemergence with test chemicals formulated in a non-phytotoxic solvent mixture which included a surfactant. At the same time, these same crop and weed species were planted in pots containing the planting medium comprising spaghnum peat moss, vermiculite, wetting agent and starter nutrients and treated with postemergence applications of the test chemicals formulated in the same manner. Plants ranged in height from 2 to 18 cm (1- to 4-leaf stage).
(§2) Treated plants and controls were maintained in a controlled growth environment for 14 to 21 days after which time all species were compared to controls and visually evaluated. Plant response ratings, summarized in Table D, are based on a scale of 0 to 100 where 0 is no effect and 100 is complete control. A dash (-) response means no test result.

Test [2] relates to foxtail, green (green foxtail, Setaria viridis). The test is described as follows: Test D pre-/postemergence: foxtail, green.
Description: as §1, §2

Test [3] relates to lambsquarters (Chenopodium album). The test is described as follows: Test D pre-/postemergence: lambsquarters.
Description: as §1, §2

The test system of test [4] is wheat, spring (spring wheat, Triticum aestivum). The test is described as follows: Test D pre-/postemergence: wheat, spring.
Description: as §1, §2

The subject of test [5] is blackgrass (Alopecurus myosuroides). The experiment in a line: Test D pre-/postemergence: blackgrass.
Description: as §1, §2

Test [6] has as its system wheat, winter (winter wheat, Triticum aestivum). The test is described as follows: Test D pre-/postemergence: wheat, winter.
Description: as §1, §2

In test [7] the test system is rice (Oryza sativa). The experiment in a line: Test C flooded paddy test: rice. The settings on record: Oryza sativa, scale 0 to 100 (0 no effect, 100 complete control), read-out: Plant response rating, Rice; for plant injury at 62 g/ha: 62 g ai/ha; for plant injury at 250 g/ha: 250 g ai/ha; for plant injury at 125 g/ha: 125 g ai/ha. In outline: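 Greenhouse plants treated at the 2-leaf stage by dosing the flood water (3 cm depth, maintained) were compared with controls after 13 to 15 days and rated 0 to 100, where 100 means complete control; a dash marks no test result.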

Setting [8] is: Postemergence, 31 g ai/ha, scale 0 to 100 (0 no effect, 100 complete control).
Setting [9] is: Postemergence, 62 g ai/ha, scale 0 to 100 (0 no effect, 100 complete control).
Where [10] appears, read: Postemergence, 125 g ai/ha, scale 0 to 100, 0 no effect, 100 complete control.
The mark [11] stands for this setting: Postemergence, 16 g ai/ha, scale 0 to 100.
The mark [12] stands for this setting: Preemergence, 16 g ai/ha, scale 0 to 100, 0 no effect, 100 complete control.
Setting [13] is: Preemergence, 31 g ai/ha, scale 0 to 100, 0 no effect, 100 complete control.
Where [14] appears, read: Preemergence, 62 g ai/ha, scale 0 to 100.
The mark [15] stands for this setting: Preemergence, 125 g ai/ha, scale 0 to 100.
Where [16] appears, read: Flood (flooded paddy test), visual rating after 13 to 15 days.

On to `Cc1nn(-c2ccc(F)c(C(F)(F)F)c2)nc1Cc1ccnc(C(F)(F)F)c1` [Compound 156], for which the “Plant response rating: Deadnettle” value in test [1] (setting [8]) came out at 85; in test [1] (setting [9]), 100; in test [1] (setting [10]) it was 100. The “Plant response rating, Deadnettle” value is 70 in test [1] (setting [11]); 5 in test [1] (setting [12]); 15 in test [1] (setting [13]); 100 in test [1] (setting [14]); 100 in test [1] (setting [15]). Further, the “Plant response rating: Foxtail, Green” value is 25 in test [2] (setting [8]), 25 in test [2] (setting [9]) and 65 in test [2] (setting [10]). In addition, the “Plant response rating, Foxtail, Green” value in test [2] (setting [11]) was 10; in test [2] (setting [12]), 5; in test [2] (setting [13]), 10; in test [2] (setting [14]), 30; in test [2] (setting [15]), 100. Moreover, the “Plant response rating: Lambsquarters” value in test [3] (setting [8]) stood at 90; in test [3] (setting [9]), 85; in test [3] (setting [10]), 95. In addition, the “Plant response rating, Lambsquarters” value in test [3] (setting [11]) was 85; in test [3] (setting [12]), 25; in test [3] (setting [13]), 30; in test [3] (setting [14]) it was 85; in test [3] (setting [15]) it was 100. Moreover, the “Plant response rating: Wheat, Spring” value in test [4] (setting [8]) came to 15; in test [4] (setting [9]) it was 20; in test [4] (setting [10]) it was 25. Also, the “Plant response rating, Wheat, Spring” value was found to be 10 in test [4] (setting [11]); 0 in test [4] (setting [12]); 0 in test [4] (setting [13]); 0 in test [4] (setting [14]); 5 in test [4] (setting [15]). Besides, the “Plant response rating: Blackgrass” value in test [5] (setting [8]) is given as 15; in test [5] (setting [9]), 35; in test [5] (setting [10]), 60. The “Plant response rating, Blackgrass” value in test [5] (setting [11]) was 10; in test [5] (setting [12]), 0; in test [5] (setting [13]), 5; in test [5] (setting [14]), 15; in test [5] (setting [15]) it was 70. In addition, the “Plant response rating: Wheat, Winter” value in test [6] (setting [8]) is listed as 15; in test [6] (setting [9]), 15; in test [6] (setting [10]), 20. The “Plant response rating, Wheat, Winter” value in test [6] (setting [11]) is 10; in test [6] (setting [12]) it was 0; in test [6] (setting [13]), 0; in test [6] (setting [14]) it was 0; in test [6] (setting [15]) it was 5.

For the molecule `Cc1nn(-c2ccc(C(F)(F)F)cc2)nc1Oc1csc(C(F)(F)F)c1` [Compound 1, 4-methyl-2-[4-(trifluoromethyl)phenyl]-5-[[5-(trifluoromethyl)-3-thienyl]oxy]-2H-1,2,3-triazole], in test [7] (setting [16]), the plant injury at 62 g/ha came out at 0% and the plant injury at 250 g/ha was determined as 0%.

For the molecule `FCc1nn(-c2ccc(C(F)(F)F)cc2)nc1Oc1cccc(OC(F)(F)F)c1` [Compound 116, 4-(fluoromethyl)-5-[3-(trifluoromethoxy)phenoxy]-2-[4-(trifluoromethyl)phenyl]-2H-1,2,3-triazole], in test [7] (setting [16]), the plant injury at 125 g/ha was found to be 20% and the plant injury at 250 g/ha amounted to 30%. In addition, in test [7] (Flood), the plant injury at 62 g/ha is 0%.

For the molecule `COCc1nn(-c2ccc(C(F)(F)F)cc2)nc1Oc1cccc(OC(F)(F)F)c1` [Compound 115, 4-(methoxymethyl)-5-[3-(trifluoromethoxy)phenoxy]-2-[4-(trifluoromethyl)phenyl]-2H-1,2,3-triazole], in test [7] (setting [16]), the plant injury at 125 g/ha was determined as 30% and the plant injury at 250 g/ha was determined as 40%. In test [7] (Flood), the plant injury at 62 g/ha turned out to be 20%.

With `CCc1nn(-c2ccc(C(F)(F)F)cc2)nc1Cc1ccnc(C(F)(F)F)c1` [Compound 155], the “Plant response rating: Deadnettle” value in test [1] (setting [8]) is 75; in test [1] (setting [9]), 90; in test [1] (setting [10]) it was 100. Further, the “Plant response rating, Deadnettle” value in test [1] (setting [11]) was 75; in test [1] (setting [12]), 5; in test [1] (setting [13]), 5; in test [1] (setting [14]), 80; in test [1] (setting [15]), 95. The “Plant response rating: Foxtail, Green” value in test [2] (setting [8]) was determined as 15; in test [2] (setting [9]), 70; in test [2] (setting [10]), 80. For the same molecule, the “Plant response rating, Foxtail, Green” value came out at 20 in test [2] (setting [11]); 20 in test [2] (setting [12]); 65 in test [2] (setting [13]); 85 in test [2] (setting [14]); 100 in test [2] (setting [15]). Also, the “Plant response rating: Lambsquarters” value in test [3] (setting [8]) worked out at 95; in test [3] (setting [9]), 90; in test [3] (setting [10]) it was 95. Further, the “Plant response rating, Lambsquarters” value in test [3] (setting [11]) turned out to be 95; in test [3] (setting [12]) it was 20; in test [3] (setting [13]), 55; in test [3] (setting [14]), 90; in test [3] (setting [15]), 90. Besides, the “Plant response rating: Wheat, Spring” value turned out to be 20 in test [4] (setting [8]), 25 in test [4] (setting [9]) and 50 in test [4] (setting [10]). The “Plant response rating, Wheat, Spring” value is 15 in test [4] (setting [11]); 0 in test [4] (setting [12]); 0 in test [4] (setting [13]); 0 in test [4] (setting [14]); 5 in test [4] (setting [15]). Moreover, the entries for the “Plant response rating: Blackgrass” value in test [5] (setting [8]), in test [5] (setting [9]) and in test [5] (setting [10]) were 50, 60 and 85, respectively. The “Plant response rating, Blackgrass” value in test [5] (setting [11]) was 5; in test [5] (setting [12]), 5; in test [5] (setting [13]), 10; in test [5] (setting [14]) it was 20; in test [5] (setting [15]), 70. Also, the “Plant response rating: Wheat, Winter” value in test [6] (setting [8]) stood at 10; in test [6] (setting [9]), 15; in test [6] (setting [10]) it was 25. Moreover, the “Plant response rating, Wheat, Winter” value in test [6] (setting [11]) stood at 5; in test [6] (setting [12]), 0; in test [6] (setting [13]), 0; in test [6] (setting [14]) it was 5; in test [6] (setting [15]) it was 5.
